Legend:
Assay type in all cases: functional
[1] = tested on: MDA-MB-435; assay: Cytotoxicity against Homo sapiens (human) MDA-MB-435 cells after 48 hr by SRB assay; conditions: MDA-MB-435, 48 h
[2] = tested on: Hs-578T; assay: Cytotoxicity against Homo sapiens (human) Hs578T cells after 48 hr by SRB assay
[3] = tested on: MCF7; assay: Cytotoxicity against Homo sapiens (human) MCF7 cells after 48 hr by SRB assay; conditions: MCF7, 48 h
[4] = tested on: DU-145; assay: Cytotoxicity against Homo sapiens (human) DU145 cells after 48 hr by SRB assay; conditions: DU-145, 48 h
[5] = tested on: UO-31; assay: Cytotoxicity against Homo sapiens (human) UO31 cells after 48 hr by SRB assay; conditions: UO-31, 48 h
[6] = tested on: RXF 393; assay: Cytotoxicity against Homo sapiens (human) RXF393 cells after 48 hr by SRB assay; conditions: RXF 393, 48 h
[7] = tested on: SN12C; assay: Cytotoxicity against Homo sapiens (human) SN12C cells after 48 hr by SRB assay
[8] = tested on: CAKI-1; assay: Cytotoxicity against Homo sapiens (human) Caki1 cells after 48 hr by SRB assay; conditions: CAKI-1, 48 h
[9] = tested on: ACHN; assay: Cytotoxicity against Homo sapiens (human) ACHN cells after 48 hr by SRB assay
[10] = tested on: 786-0; assay: Cytotoxicity against Homo sapiens (human) 786-0 cells after 48 hr by SRB assay; conditions: 786-0, 48 h
[11] = Cytotoxicity against Homo sapiens (human) NCI-ADR-RES cells after 48 hr by SRB assay
[12] = tested on: SK-OV-3; assay: Cytotoxicity against Homo sapiens (human) SKOV3 cells after 48 hr by SRB assay; conditions: SK-OV-3, 48 h
[13] = tested on: OVCAR-8; assay: Cytotoxicity against Homo sapiens (human) OVCAR8 cells after 48 hr by SRB assay; conditions: OVCAR-8, 48 h
[14] = tested on: OVCAR-5; assay: Cytotoxicity against Homo sapiens (human) OVCAR5 cells after 48 hr by SRB assay; conditions: OVCAR-5, 48 h
[15] = tested on: OVCAR-4; assay: Cytotoxicity against Homo sapiens (human) OVCAR4 cells after 48 hr by SRB assay; conditions: OVCAR-4, 48 h
[16] = tested on: UACC-62; assay: Cytotoxicity against Homo sapiens (human) UACC62 cells after 48 hr by SRB assay; conditions: UACC-62, 48 h
[17] = tested on: UACC-257; assay: Cytotoxicity against Homo sapiens (human) UACC257 cells after 48 hr by SRB assay; conditions: UACC-257, 48 h
[18] = tested on: SK-MEL-2; assay: Cytotoxicity against Homo sapiens (human) SK-MEL-2 cells after 48 hr by SRB assay; conditions: SK-MEL-2, 48 h
[19] = tested on: SK-MEL-28; assay: Cytotoxicity against Homo sapiens (human) SK-MEL-28 cells after 48 hr by SRB assay; conditions: SK-MEL-28, 48 h
[20] = Cytotoxicity against Homo sapiens (human) breast cancer cells after 48 hr by SRB assay; conditions: Cancer cell lines
[21] = Cytotoxicity against Homo sapiens (human) renal cancer cells after 48 hr by SRB assay; conditions: Cancer cell lines
[22] = Cytotoxicity against Homo sapiens (human) ovarian cancer cells after 48 hr by SRB assay; conditions: Cancer cell lines
[23] = Cytotoxicity against Homo sapiens (human) melanoma cells after 48 hr by SRB assay; conditions: Melanoma cell
[24] = Cytotoxicity against Homo sapiens (human) CNS cancer cells after 48 hr by SRB assay; conditions: Cancer cell lines
[25] = tested on: NCI-H460; assay: Cytotoxicity against Homo sapiens (human) NCI-H460 cells assessed as cellular growth after 48 hr by Alamar blue assay; parameters: concentration or dose not given beside the values
[26] = Cytotoxicity against Homo sapiens (human) leukemia cells after 48 hr by SRB assay; conditions: Leukemia cell
[27] = tested on: SF-268; assay: Cytotoxicity against Homo sapiens (human) SF268 cells assessed as cellular growth after 48 hr by Alamar blue assay; parameters: concentration or dose not given beside the values
[28] = tested on: BT-549; assay: Cytotoxicity against Homo sapiens (human) BT549 cells after 48 hr by SRB assay; conditions: BT-549, 48 h
[29] = tested on: T47D; assay: Cytotoxicity against Homo sapiens (human) T47D cells after 48 hr by SRB assay
[30] = tested on: SNB-19; assay: Cytotoxicity against Homo sapiens (human) SNB19 cells after 48 hr by SRB assay; conditions: SNB-19, 48 h
[31] = tested on: SF-539; assay: Cytotoxicity against Homo sapiens (human) SF539 cells after 48 hr by SRB assay; conditions: SF-539, 48 h
[32] = tested on: SF-295; assay: Cytotoxicity against Homo sapiens (human) SF295 cells after 48 hr by SRB assay; conditions: SF-295, 48 h
[33] = tested on: SW-620; assay: Cytotoxicity against Homo sapiens (human) SW620 cells after 48 hr by SRB assay; conditions: SW-620, 48 h
[34] = tested on: SF-268; assay: Cytotoxicity against Homo sapiens (human) SF268 cells after 48 hr by SRB assay; conditions: SF-268, 48 h
[35] = tested on: KM12; assay: Cytotoxicity against Homo sapiens (human) KM12 cells after 48 hr by SRB assay; conditions: KM12, 48 h
[36] = tested on: HCT-15; assay: Cytotoxicity against Homo sapiens (human) HCT15 cells after 48 hr by SRB assay; conditions: HCT-15, 48 h
[37] = tested on: HT-29; assay: Cytotoxicity against Homo sapiens (human) HT-29 cells after 48 hr by SRB assay; conditions: HT-29, 48 h
[38] = tested on: NCI-H522; assay: Cytotoxicity against Homo sapiens (human) NCI-H522 cells after 48 hr by SRB assay; conditions: NCI-H522, 48 h
[39] = tested on: COLO 205; assay: Cytotoxicity against Homo sapiens (human) COLO205 cells after 48 hr by SRB assay; conditions: COLO 205, 48 h
[40] = Cytotoxicity against Homo sapiens (human) NCI-H322 cells after 48 hr by SRB assay; conditions: NCI-H322, 48 h
[41] = tested on: NCI-H460; assay: Cytotoxicity against Homo sapiens (human) NCI-H460 cells after 48 hr by SRB assay; conditions: NCI-H460, 48 h
[42] = tested on: HOP-92; assay: Cytotoxicity against Homo sapiens (human) HOP92 cells after 48 hr by SRB assay; conditions: HOP-92, 48 h
[43] = tested on: EKVX; assay: Cytotoxicity against Homo sapiens (human) EKVX cells after 48 hr by SRB assay
[44] = tested on: HOP-62; assay: Cytotoxicity against Homo sapiens (human) HOP62 cells after 48 hr by SRB assay; conditions: HOP-62, 48 h
[45] = tested on: RPMI-8226; assay: Cytotoxicity against Homo sapiens (human) RPMI8226 cells after 48 hr by SRB assay; conditions: RPMI-8226, 48 h
[46] = tested on: CCRF-CEM; assay: Cytotoxicity against Homo sapiens (human) CCRF-CEM cells after 48 hr by SRB assay
[47] = tested on: MCF7; assay: Cytotoxicity against Homo sapiens (human) MCF7 cells assessed as cellular growth after 48 hr by Alamar blue assay; parameters: concentration or dose not given beside the values

## O=S(=O)(/N=c1\scc(-c2ccccc2)n1-c1ccccc1)c1ccc(N2N=C3c4ccccc4CC3C2c2cccs2)cc1 (stereo unspecified)
[1]
  GI50: 38.7 µM
[2]
  GI50: 60.6 µM
[3]
  GI50: 29.1 µM
[4]
  GI50: > 100 µM
[5]
  GI50: > 100 µM
[6]
  GI50: 98.2 µM
[7]
  GI50: 94.3 µM
[8]
  GI50: 73 µM
[9]
  GI50: 42.5 µM
[10]
  GI50: 64.2 µM
[11]
  GI50: > 100 µM
[12]
  GI50: > 100 µM
[13]
  GI50: 47.2 µM
[14]
  GI50: 88.9 µM
[15]
  GI50: > 100 µM
[16]
  GI50: 60.3 µM
[17]
  GI50: > 100 µM
[18]
  GI50: > 100 µM
[19]
  GI50: > 100 µM
[20]
  GI50: 61.1 µM
  TGI: > 100 µM
[21]
  GI50: 72.1 µM
  TGI: 96.5 µM
[22]
  GI50: 87.2 µM
  TGI: > 100 µM
[23]
  GI50: 74.6 µM
  TGI: > 100 µM
[24]
  GI50: 80.9 µM
  TGI: > 100 µM
[25]
  Activity: <=32%
[26]
  GI50: 55 µM
  TGI: 90.9 µM
[27]
  Activity: <=32%
[28]
  GI50: 47.5 µM
[29]
  GI50: > 100 µM
[30]
  GI50: > 100 µM
[31]
  GI50: > 100 µM
[32]
  GI50: 54.5 µM
[33]
  GI50: 94.2 µM
[34]
  GI50: > 100 µM
[35]
  GI50: 32.1 µM
[36]
  GI50: 67.4 µM
[37]
  GI50: 82 µM
[38]
  GI50: 61.9 µM
[39]
  GI50: > 100 µM
[40]
  GI50: 31.4 µM
[41]
  GI50: 95.1 µM
[42]
  GI50: > 100 µM
[43]
  GI50: 35.5 µM
[44]
  GI50: 73.2 µM
[45]
  GI50: 51 µM
[46]
  GI50: 50.3 µM
[47]
  Activity: <=32%

## O=C(c1ccccc1)n1c(-c2ccccc2)cs/c1=N\S(=O)(=O)c1ccc(N2N=C3c4ccccc4CC3C2c2cccs2)cc1 (stereo unspecified)
[1]
  GI50: 31.1 µM
[2]
  GI50: 17 µM
[3]
  GI50: > 100 µM
[4]
  GI50: 47 µM
[5]
  GI50: 98.1 µM
[6]
  GI50: 37 µM
[7]
  GI50: 44.4 µM
[8]
  GI50: 38 µM
[9]
  GI50: 43.8 µM
[10]
  GI50: 21.8 µM
[11]
  GI50: > 100 µM
[12]
  GI50: > 100 µM
[13]
  GI50: 42.9 µM
[14]
  GI50: 34.3 µM
[15]
  GI50: > 100 µM
[16]
  GI50: 27.3 µM
[17]
  GI50: 45.7 µM
[18]
  GI50: > 100 µM
[19]
  GI50: > 100 µM
[20]
  GI50: 65.3 µM
  TGI: > 100 µM
[21]
  GI50: 44.8 µM
  TGI: 95.3 µM
[22]
  GI50: 72 µM
  TGI: > 100 µM
[23]
  GI50: 51.6 µM
  TGI: 98.2 µM
[24]
  GI50: 64.5 µM
  TGI: > 100 µM
[25]
  Activity: <=32%
[26]
  GI50: 32.9 µM
  TGI: 80.3 µM
[27]
  Activity: <=32%
[28]
  GI50: 69.7 µM
[29]
  GI50: > 100 µM
[30]
  GI50: 59.2 µM
[31]
  GI50: 58.6 µM
[32]
  GI50: 37.1 µM
[33]
  GI50: 58.8 µM
[34]
  GI50: > 100 µM
[35]
  GI50: 38.3 µM
[36]
  GI50: 61.4 µM
[37]
  GI50: 73.3 µM
[38]
  GI50: 23.7 µM
[39]
  GI50: 98.1 µM
[40]
  GI50: 22.3 µM
[41]
  GI50: > 100 µM
[42]
  GI50: > 100 µM
[43]
  GI50: 40.7 µM
[44]
  GI50: 23.7 µM
[45]
  GI50: 32.3 µM
[46]
  GI50: 41.3 µM
[47]
  Activity: <=32%

Source: ChEMBL document CHEMBL3046832, “Synthesis of some sulfonamides, disubstituted sulfonylureas or thioureas and some structurally related variants. A class of promising antitumor agents” (2007)
